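Tested at 5 concentrations; 48 h exposure; 96-well plates; endpoints linearly interpolated, else capped at highest concentration. At the GI50, growth is halved. TGI: concentration producing complete growth inhibition.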

The values below come from PubChem BioAssay (NCI).

Among the test systems are OVCAR-4 ovarian; SK-MEL-2 melanoma; NCI-H23 lung; SF-539 CNS; SW-620 colon; DU-145 prostate; SN12C renal; NCI-H522 lung; A549 NSCLC; RPMI-8226 leukemia.
Common to all, as to assay: DTP human tumour cell line panel, 48 h

Consider `COc1ccc(OC)c2c(Nc3ccc(S(=O)(=O)O)c4cc(S(=O)(=O)O)cc(S(=O)(=O)O)c34)cc(C)nc12`, for which the TGI with OVCAR-4 ovarian, in the test with SK-MEL-2 melanoma, in the test with NCI-H23 lung, in the test on SF-539 CNS, in the test with SW-620 colon and with DU-145 prostate was over 100 µM throughout. Further, the TGI in the test on SN12C renal, in the test on NCI-H522 lung, with A549 NSCLC and in the test on RPMI-8226 leukemia was over 100 µM in each case.

With `CNc1nc(OC)c2c(n1)[n+](C)cn2C`, the TGI with SK-MEL-2 melanoma, with NCI-H23 lung, in the test on SF-539 CNS, with SW-620 colon, with DU-145 prostate and in the test with SN12C renal was over 100 µM throughout. Also, the TGI in the test on NCI-H522 lung, in the test on A549 NSCLC and in the test on RPMI-8226 leukemia was over 100 µM in each case.

For the compound `C(/Cc1ccc2c(c1)OCO2)=N\NC1=NCCCCN1`, the total growth inhibition concentration (TGI) in the test on OVCAR-4 ovarian, with SK-MEL-2 melanoma, in the test with NCI-H23 lung, with SF-539 CNS, with SW-620 colon and with DU-145 prostate was over 100 µM throughout. Moreover, the concentration for total growth inhibition (TGI) with SN12C renal, in the test on NCI-H522 lung, with A549 NSCLC and in the test on RPMI-8226 leukemia was over 100 µM each time.

On to `CCOC(=O)N/N=C(/N)Cc1ccc(Cl)cc1`, for which the TGI in the test with OVCAR-4 ovarian, in the test with SK-MEL-2 melanoma, in the test on NCI-H23 lung, with SF-539 CNS, with SW-620 colon and in the test with DU-145 prostate was over 100 µM each time. For the same compound, the TGI in the test with SN12C renal, in the test on NCI-H522 lung, with A549 NSCLC and in the test with RPMI-8226 leukemia was over 100 µM throughout.

Consider `CC(=O)OC/C=C/Cn1nc(Br)c(=O)[nH]c1=O`, for which the TGI with OVCAR-4 ovarian, in the test on SK-MEL-2 melanoma, with NCI-H23 lung, with SF-539 CNS, in the test on SW-620 colon and with DU-145 prostate was over 100 µM throughout. In addition, the total growth inhibition concentration (TGI) in the test with SN12C renal, in the test with NCI-H522 lung, in the test with A549 NSCLC and in the test with RPMI-8226 leukemia was over 100 µM each time.

For `C[C@@H](c1ccccc1)N(CC#N)[C@H]1CCC[C@]1(O)/C=C/c1ccc2c(c1)OCO2`, the TGI with OVCAR-4 ovarian, with SK-MEL-2 melanoma, in the test on NCI-H23 lung, in the test on DU-145 prostate, in the test on SN12C renal and in the test with NCI-H522 lung was over 25 µM each time. The TGI in the test on A549 NSCLC and with RPMI-8226 leukemia was over 25 µM each time.

Regarding `Clc1cc2ncn(C3CCCO3)c2cc1Cl` (stereo not given), the TGI with OVCAR-4 ovarian, with SK-MEL-2 melanoma, with NCI-H23 lung, in the test with SF-539 CNS, in the test on SW-620 colon and in the test on DU-145 prostate was over 100 µM each time. The TGI in the test on SN12C renal, in the test with NCI-H522 lung, in the test on A549 NSCLC and with RPMI-8226 leukemia was over 100 µM each time.

Take `CCCCCNC(=O)OC1CCn2c1nc1c2C(=O)C(C)=C(N2CC2)C1=O` (stereo not given): the concentration for total growth inhibition (TGI) in the test with OVCAR-4 ovarian came out at 4.98 µM; with SK-MEL-2 melanoma, 3.7 µM; in the test with NCI-H23 lung it was 6.2 µM; in the test with SF-539 CNS, 5.33 µM; in the test on DU-145 prostate it was 2.37 µM; with SN12C renal it was 3.27 µM. Also, the TGI is 3.4 µM with NCI-H522 lung, 2.57 µM in the test on A549 NSCLC and over 100 µM in the test on RPMI-8226 leukemia.

For the compound `NNC(=O)COc1nc(-c2cccs2)nc2ccc(I)cc12`, the TGI with OVCAR-4 ovarian was 77 µM; in the test with SK-MEL-2 melanoma, 71.3 µM; in the test with NCI-H23 lung it was 41.2 µM; in the test with SW-620 colon, over 100 µM; in the test on DU-145 prostate it was 50.7 µM; with SN12C renal it was 92.2 µM. For the same compound, the TGI is 45.8 µM in the test on NCI-H522 lung, 43.2 µM with A549 NSCLC and 39.4 µM with RPMI-8226 leukemia. Also, the GI50 in the test on RPMI-8226 leukemia was 16 µM.

In the case of `CCOC(=O)c1sc2nc(SC)nc3c2c1NCN3c1ccccc1Cl`, the concentration for total growth inhibition (TGI) in the test with OVCAR-4 ovarian, with SK-MEL-2 melanoma, with NCI-H23 lung, in the test with SW-620 colon, in the test with DU-145 prostate and with SN12C renal was over 100 µM each time. The results for the TGI in the test with NCI-H522 lung, in the test on A549 NSCLC and with RPMI-8226 leukemia were 52.7 µM, over 100 µM and over 100 µM, respectively.

As for `COC(=O)C1CCC(=S)N1C(C)=O` (stereo not given), the TGI in the test on OVCAR-4 ovarian, in the test with SK-MEL-2 melanoma, in the test on NCI-H23 lung, in the test on SW-620 colon, in the test with DU-145 prostate and in the test on NCI-H522 lung was over 100 µM throughout. Moreover, the TGI with A549 NSCLC and with RPMI-8226 leukemia was over 100 µM throughout.

Turning to `CCN(CC)CCCNc1nnc(C)c2[nH]c3ccccc3c12`, the TGI is 33.3 µM in the test with SK-MEL-2 melanoma; 38.8 µM in the test on NCI-H23 lung; 5.86 µM in the test on SF-539 CNS; over 100 µM in the test with SW-620 colon; 59.9 µM with DU-145 prostate; 43 µM with SN12C renal. Further, the total growth inhibition concentration (TGI) in the test on NCI-H522 lung is 21.3 µM; in the test on A549 NSCLC, 53 µM; in the test on RPMI-8226 leukemia, over 100 µM.

Consider `O=P1(C(O)c2ccccc2)N(Cc2ccccc2)[C@@H]2CCCC[C@H]2N1Cc1ccccc1` (stereo not given in full), for which the concentration for total growth inhibition (TGI) with OVCAR-4 ovarian was 53.1 µM; in the test with SK-MEL-2 melanoma, 73.7 µM; with NCI-H23 lung, over 100 µM; in the test with SF-539 CNS, 45.6 µM; with SW-620 colon it was over 100 µM; in the test with DU-145 prostate it was over 100 µM. Also, the values for the TGI in the test with SN12C renal, in the test on NCI-H522 lung and in the test with A549 NSCLC were 43 µM, 63.6 µM and over 100 µM, respectively.

With `CC(C)(C)OC(=O)NCCCCC1NC(=O)[C@@H]2Cc3c([nH]c4ccccc34)C(c3ccccc3)N2C1=O` (stereo not given in full), the concentration for total growth inhibition (TGI) in the test on OVCAR-4 ovarian is over 100 µM; in the test on SK-MEL-2 melanoma it was 50.5 µM; in the test with NCI-H23 lung, over 100 µM; with SW-620 colon, over 100 µM; in the test on DU-145 prostate, over 100 µM; with SN12C renal, 79.6 µM. The TGI with NCI-H522 lung, in the test on A549 NSCLC and in the test with RPMI-8226 leukemia was over 100 µM in each case.
